Results on three compounds are retold here after US20150320709A1, “METHODS AND COMPOSITIONS FOR FACILITATING WEIGHT LOSS BY ADMINISTRATION OF THYROID HORMONES” (priority 2011, published 2015).

The nature of assay [1]: Circulating thyroid hormone labs (FT3, FT4, rT3, TSH) in weight loss program patients on thyroid hormone treatment. The class given is in vivo, human. The text has this: FIG. 1 depicts hormonal responses to a hypocaloric state with subsequent treatment. Note: Time frames and shapes of response curves are approximated. Levels of all four hormones are normal before the diet (Time A). At time between time points B and D, TSH is dropping slightly to signal the thyroid gland to make less thyroid hormone. This drop is the mechanism to decrease metabolism in the hypocaloric state. At point C, free T3 begins to drop as rT3 increases. Also at time point C, different observations have been reported for changes in FT4: in our experience, FT4 also drops as indicated on the graph. In the literature, some report no change, whereas others report an increase in FT4. By the time of the blood sampling (time E), in our experience, patients whose FT3 and FT4 have dropped to the low end of normal (with possible above normal rT3 levels) are those experiencing symptoms of low thyroid. They may have any of the following symptoms: feeling cold, cold hands and feet, elevated diastolic blood pressure secondary to vasoconstriction, fatigue, depression, constipation, hair loss, dry skin, insomnia, as well as others. They have often hit a plateau of weight loss even though they have continued to maintain their hypocaloric diet and exercise program. At point F, we begin treatment with thyroid hormone (for example, T4 with T3, T3 alone, T3 with T2 and T4, or T2 alone. Between points F and G, FT3 and rT3 (and FT4 if T4 was administered) are returning to more normal levels, while TSH plummets, often to undetectable levels. At time point H, symptoms of low thyroid are resolved, the patient has no symptoms of hyperthyroidism, and if rT3 had risen and was treated appropriately, rT3 decreased.
The first patient example is a person, 5′2″, weight 268 lbs, body mass index (BMI) 49 (nl 19-24; overweight 25-29; obesity≧30). Baseline blood pressure was 110/74, blood sugar (BS) was 153 mg/dL 10 days after their first visit. Their medical problems at baseline included obesity, type 2 diabetes mellitus (DM2), high blood pressure (HTN), fatigue, depression, and asthma. Their medications included glipizide 10 mg daily, amitriptyline 50 mg daily, metoprolol 50 mg daily, furosemide 40 mg daily, potassium chloride, lisinopril 10 mg daily, Advair Discus 500/50 twice daily (bid), and montelukast 10 mg daily. They were started on our comprehensive program. Five months after starting their weight loss treatment, they developed symptoms of hypothyroidism with constipation and fatigue. They had lost 28 lbs by this time and was having difficulty losing more weight even though they were eating less than they were before their weight loss treatment began. At the start of treatment, their FT4 was 0.9 ng/dL (nl 0.7-1.48). At the time of their low thyroid symptoms, their FT3 was 2.9 pg/mL (nl 1.71-3.71) and their FT4 was 0.91 ng/dL (nl 0.7-1.48). They were then treated with thyroid hormone (desiccated thyroid with a ratio of T4:T3 of about 4:1) at 60 mg daily for 6 days to acclimate, then increased to 120 mg daily. […] After two years on their weight loss treatment, their weight was 231 lbs. […] We tested for rT3 at this point. Their labs on the 150 mg dose of desiccated thyroid were: rT3 394 pg/mL (nl 90-350), FT3 3.94 pg/mL (nl 1.71-3.71), and FT4 1.24 ng/dL (nl 0.7-1.48). The task of bringing down their rT3 was then addressed. Over a period of a few months, their desiccated thyroid hormone was discontinued and instead the patient was given gradually increasing doses of T3 only, starting at 20 mcg daily and gradually increasing the T3 to 60 mcg bid. Five months after starting on T3 with increasing doses, their weight had dropped to 209 lbs. Their BP was 118/66 mmHg with pulse of 74 on lisinopril 10 mg daily, metoprolol 50 mg bid, and furosemide 40 mg daily. Instead of glipizide, they were taking metformin 500 mg bid. […] Their most recent labs on 60 mcg bid of T3 were FT3 3.8 pg/mL (nl 1.71-3.71), FT4 0.64 ng/dL (nl 0.7-1.48) and rT3 137 pg/mL (nl 90-350). Four months prior to this visit their BS was 125 mg/dl. […]

The nature of assay [2]: Low thyroid symptoms / clinical status of weight loss program patients on thyroid hormone treatment. Type of assay: in vivo, human.
The test system of assay [3] is thyroid hormone receptors. Particulars: cited from earlier work.
The nature of assay [4]: Low thyroid symptoms / clinical status of weight loss program patients on thyroid hormone treatment. The class given is in vivo, human. To be noted: Patient Example 2; 75 mcg daily, within a few weeks of switch from desiccated thyroid. On the procedure:
The first patient example is a person, 5′2″, weight 268 lbs, body mass index (BMI) 49 (nl 19-24; overweight 25-29; obesity≧30). Baseline blood pressure was 110/74, blood sugar (BS) was 153 mg/dL 10 days after their first visit. Their medical problems at baseline included obesity, type 2 diabetes mellitus (DM2), high blood pressure (HTN), fatigue, depression, and asthma. Their medications included glipizide 10 mg daily, amitriptyline 50 mg daily, metoprolol 50 mg daily, furosemide 40 mg daily, potassium chloride, lisinopril 10 mg daily, Advair Discus 500/50 twice daily (bid), and montelukast 10 mg daily. They were started on our comprehensive program. Five months after starting their weight loss treatment, they developed symptoms of hypothyroidism with constipation and fatigue. They had lost 28 lbs by this time and was having difficulty losing more weight even though they were eating less than they were before their weight loss treatment began. At the start of treatment, their FT4 was 0.9 ng/dL (nl 0.7-1.48). At the time of their low thyroid symptoms, their FT3 was 2.9 pg/mL (nl 1.71-3.71) and their FT4 was 0.91 ng/dL (nl 0.7-1.48). They were then treated with thyroid hormone (desiccated thyroid with a ratio of T4:T3 of about 4:1) at 60 mg daily for 6 days to acclimate, then increased to 120 mg daily. […] After two years on their weight loss treatment, their weight was 231 lbs. […] We tested for rT3 at this point. Their labs on the 150 mg dose of desiccated thyroid were: rT3 394 pg/mL (nl 90-350), FT3 3.94 pg/mL (nl 1.71-3.71), and FT4 1.24 ng/dL (nl 0.7-1.48). The task of bringing down their rT3 was then addressed. Over a period of a few months, their desiccated thyroid hormone was discontinued and instead the patient was given gradually increasing doses of T3 only, starting at 20 mcg daily and gradually increasing the T3 to 60 mcg bid. Five months after starting on T3 with increasing doses, their weight had dropped to 209 lbs. Their BP was 118/66 mmHg with pulse of 74 on lisinopril 10 mg daily, metoprolol 50 mg bid, and furosemide 40 mg daily. Instead of glipizide, they were taking metformin 500 mg bid. […] Their most recent labs on 60 mcg bid of T3 were FT3 3.8 pg/mL (nl 1.71-3.71), FT4 0.64 ng/dL (nl 0.7-1.48) and rT3 137 pg/mL (nl 90-350). Four months prior to this visit their BS was 125 mg/dl.
The second patient example is a person, 5′2″, weight 150 lbs, BMI 28 (nl 18.5-24.9; overweight 25-29.9; obesity≧30), with HTN. Their blood pressure was slightly elevated at 148/85 (on lisinopril 5 mg daily). Their medical problems at baseline included history of Hashimoto's thyroiditis, borderline high TSH, elevated lipids, and HTN. Their medications were lisinopril 5 mg daily, estradiol 2 mg daily, and rofecoxib 25 mg daily for osteoarthritis of their large joints. […]

Assay [5] can be described thus: Existing thyroid therapy in subjects undergoing a weight loss regimen (general finding). Type of assay: in vivo. To be noted: T4 alone or T3:T4 at ratios of less than 1:2. From the text:
Such T4 based therapy often serves to increase levels of rT3 and decreases levels of circulating T3, thereby undermining attempts to counter hypothyroidism and effect continued weight loss.

In assay [1] (Patient Example 3, T2 2 mcg SR q AM added, T3 25 mcg b.i.d., normal range 0.93-1.7), `N[C@@H](Cc1cc(I)c(Oc2ccc(O)cc2)c(I)c1)C(=O)O` [T2, 3,5-diiodo-1-thyronine] displayed an FT4 of 0.23 ng/dL. Moreover, the FT3 was 3.2 pg/mL in assay [1] (Patient Example 3, T2 2 mcg SR q AM added, T3 25 mcg b.i.d., normal range 2.2-4.0) and 2.7 pg/mL in assay [1] (Patient Example 4, T2 2 mcg twice daily added, T3 50 mcg twice daily, normal range 2.2-4.0). In addition, the rT3 in assay [1] (Patient Example 3, T2 2 mcg SR q AM added, T3 25 mcg b.i.d., normal range 90-350) is 69 pg/mL. In addition, the reported symptoms result is “surfaces of their body were now warm and not numb, and that their skin and hair had improved” in assay [2] (Patient Example 3, T2 2 mcg SR q AM added, T3 25 mcg b.i.d., 10 days after start of T2); “no complaints of fatigue and reported that only a slight coldness persisted” in assay [2] (Patient Example 4, T2 2 mcg q AM and 8-10 hours later added, T3 reduced to 50 mcg twice daily, nearly two months). For the same compound, the energy levels entry in assay [2] (Patient Example 3, T2 2 mcg SR q AM added, T3 decreased to 25 mcg b.i.d., two days later) is “energy levels were normalized”. Further, in assay [2] (Patient Example 3, over six weeks after starting the T2 regimen), the low thyroid symptoms entry is listed as “not suffering from any symptoms of low thyroid”.
Turning to `N[C@@H](Cc1ccc(Oc2cc(I)c(O)c(I)c2)c(I)c1)C(=O)O` [rT3, reverse triiodothyronine], the “action on thyroid hormone receptors” value in assay [3] is on record as “does not stimulate thyroid hormone receptors but instead binds to these receptors”.
For the compound `N[C@@H](Cc1cc(I)c(Oc2cc(I)c(O)c(I)c2)c(I)c1)C(=O)O` [T4, (2S)-2-amino-3-[4-(4-hydroxy-3,5-diiododophenoxy)-3,5-diiodophenyl]propanoic acid], the TSH in assay [1] (Patient Example 2, 75 mcg daily) worked out at 0.91 uIU/mL. Also, the FT4 in assay [1] (Patient Example 2, 75 mcg daily, nl 0.93-1.70) is given as 1.07 ng/dL. In assay [1] (Patient Example 2, 75 mcg daily, nl 2.2-4.0), this compound gave an FT3 of 2.3 pg/mL. The low thyroid symptoms entry in assay [4] is “began to feel tired, cold, and depressed and developed constipation and hair loss”. In assay [5], the “correction of thyroid abnormalities and/or hypothyroidism so as to permit continuing weight loss” value is recorded as “fails to correct thyroid abnormalities and/or hypothyroidism”.
